Converted amounts (≈) assume the structure as drawn.
Key:
physchem = experiment: physchem
Experimental: The solubility data for each system tested in Table DD, was determined by the following method. First, a measured amount of dry crude mixture (39.3% clari, 37.5% 6,11, and 23.2% other impurities) was added to a measured volume of the mobile phase solvent being used for the particular test case and the mixture was stirred. Heat was added while the mixture was being stirred because dissolution of Clarithromycin and 6,11 is very slow at room temperature. The solution temperature was allowed to approach the boiling temperature of the solvent. The solution was held constant at that temperature until no more solid material was present in the mixture (complete dissolution). […]
In addition to the assembly of the physical system 500, the maximum feed concentration allowed by solubility must be known to optimize the operating parameters with the non-linear, non-equilibrium equations. The solubility was determined in the manner described earlier. Next, the optimal feed concentration was determined and was created by diluting the maximum feed concentration solution. […]
The feed solutions for Experiment #1 were prepared by mixing 5.6 g dry crude (39.3% clari, 37.5% 6,11, 23.2% other) Clarithromycin and 6,11 with 1000 ml of 80% methanol. […] Finally, this solution was filtered to remove any remaining solids and the volume measured to insure there was not significant evaporation. […]

[1] = Solubility in Ethanol/water solutions (excess solid stirred four hours, filtered, HPLC)
Experimental: The relative solubilities of Clarithromycin and 6,11 at various percentages of Ethanol in the Ethanol/water solution provide a solubility curve for both Clarithromycin and 6,11. The Ethanol used is 200 proof and is available from McCormick Distilling Co. in Weston, Mass. The water used is distilled deionized water obtained from a MILLI-Q™ system available from Millipore located in Bedford, Mass. The solubilities of Clarithromycin and 6,11 are determined by adding an excess amount of the component being tested to the tested Ethanol/water solution and stirring the mixture for four hours at approximately room temperature (24 C.). The resultant solution is then filtered and assayed for concentration using HPLC (high performance liquid chromatography).
Clarithromycin solubility curve 90 was found using pure Clarithromycin. 6,11 solubility curve 92 was found using a binary mixture of Clarithromycin and 6,11.

solubility limit (physchem) [µg/mL] | solubility (physchem; 24 °C, organic solvent or mixture, thermodynamic from solid, solubility limit) [µg/mL] | solubility ([1]; Ethanol percentages below about 60%) | Ethanol content of the Ethanol/water solution at maximum solubility ([1]; approximately room temperature (24 C.), FIG. 8) | solubility ([1]; various Ethanol/water solutions, approximately room temperature (24 C.), FIG. 8) | SMILES
3030 (≈ 3.98 mM) |  |  |  |  | CC[C@H]1OC(=O)[C@H](C)[C@@H](O[C@H]2C[C@@](C)(OC)[C@@H](O)[C@H](C)O2)[C@H](C)[C@@H](O[C@@H]2O[C@H](C)C[C@H](N(C)C)[C@H]2O)[C@](C)(OC)C[C@@H](C)C(=O)[C@H](C)[C@@H](OC)[C@]1(C)O [6,11, 6,11-O-methyl erythromycin A]
 | 2460 (≈ 3.29 mM) | very small | about 80 % Ethanol | higher degree of solubility than 6,11 | CC[C@H]1OC(=O)[C@H](C)[C@@H](O[C@H]2C[C@@](C)(OC)[C@@H](O)[C@H](C)O2)[C@H](C)[C@@H](O[C@@H]2O[C@H](C)C[C@H](N(C)C)[C@H]2O)[C@](C)(OC)C[C@@H](C)C(=O)[C@H](C)[C@@H](O)[C@]1(C)O [Clarithromycin, 6-O-methyl erythromycin A]
